Active and inactive are the calls of the source.
How the values were obtained:
[1] = Luminescence Cell-Based Dose Confirmation HTS to Identify Inhibitors of Polyadenylation.; assay type: functional
Leucine aminopeptidase = molecular target: T1, Leucine aminopeptidase (Plasmodium falciparum 3D7, UniProt Q8IL11); experiment: P. falciparum M17LAP inhibitors, primary screen, biochemical, fluorogenic H-Leu-NHMec substrate, 1536-well (AID 1619); assay type: functional
T1 sequence (Q8IL11 whole entry): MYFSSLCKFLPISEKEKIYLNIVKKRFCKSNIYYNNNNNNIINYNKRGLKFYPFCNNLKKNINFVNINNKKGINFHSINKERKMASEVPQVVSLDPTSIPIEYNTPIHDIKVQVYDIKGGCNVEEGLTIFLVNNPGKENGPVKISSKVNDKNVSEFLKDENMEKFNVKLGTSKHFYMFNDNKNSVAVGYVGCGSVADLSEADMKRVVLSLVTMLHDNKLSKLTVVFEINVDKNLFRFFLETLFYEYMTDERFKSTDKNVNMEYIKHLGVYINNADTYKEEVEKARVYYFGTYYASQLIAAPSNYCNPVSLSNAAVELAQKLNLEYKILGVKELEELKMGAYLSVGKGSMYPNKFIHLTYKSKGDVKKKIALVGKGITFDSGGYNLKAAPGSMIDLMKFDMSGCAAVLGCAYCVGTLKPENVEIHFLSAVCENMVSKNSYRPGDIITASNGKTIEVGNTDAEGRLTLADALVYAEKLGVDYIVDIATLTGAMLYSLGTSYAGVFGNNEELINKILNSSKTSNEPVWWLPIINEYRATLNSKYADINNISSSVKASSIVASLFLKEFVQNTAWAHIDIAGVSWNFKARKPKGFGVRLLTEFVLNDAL

Aspartyl aminopeptidase = Aspartyl aminopeptidase (Plasmodium falciparum 3D7, UniProt Q8I2J3); experiment: Counterscreen for inhibitors of M1 and M17 aminopeptidases: QFRET-based biochemical high throughput dose response assay for inhibitors of the Plasmodium falciparum M18 Aspartyl Aminopeptidase (PFM18AAP). [Related PubChem assays: 1619 (Screening assay (M17LAP inhibitors).), 1445 (Screening assay (M1AAP inhibitors).)]
Procathepsin L = Procathepsin L (Homo sapiens, UniProt P07711); experiment: CTSL1 protease inhibition – biochemical, QFRET, 1536-well, counter-screen for M1/M17 aminopeptidase inhibitor project, dose response (AID 2214)
[2] = molecular target: T2, Neuropeptide Y receptor type 1 (Homo sapiens, UniProt P25929); assay type: functional;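 note: HEK293 cells with a CNG channel challenged with NPY then isoproterenol; potency as antagonist that reverses NPY suppression of cAMP signal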
T2 sequence (P25929 whole entry): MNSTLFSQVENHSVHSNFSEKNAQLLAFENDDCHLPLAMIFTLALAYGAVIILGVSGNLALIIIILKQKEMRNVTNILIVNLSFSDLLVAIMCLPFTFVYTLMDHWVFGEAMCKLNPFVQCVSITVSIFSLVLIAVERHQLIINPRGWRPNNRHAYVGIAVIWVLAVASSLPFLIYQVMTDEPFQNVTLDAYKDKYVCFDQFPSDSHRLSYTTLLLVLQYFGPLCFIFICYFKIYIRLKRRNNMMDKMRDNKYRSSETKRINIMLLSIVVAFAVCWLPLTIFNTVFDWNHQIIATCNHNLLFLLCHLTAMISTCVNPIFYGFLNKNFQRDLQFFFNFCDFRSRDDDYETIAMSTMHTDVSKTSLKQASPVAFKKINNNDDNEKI

[3] = molecular target: T3, Neuropeptide Y receptor type 2 (Homo sapiens, UniProt P49146); assay type: functional, cell-based;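 note: HEK293 cells expressing the receptor and a CNG channel; stimulus was NPY near EC95 followed by isoproterenol to raise cAMP; antagonist potency measured as restoring cAMP signal that NPY suppresses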
T3 sequence (P49146 whole entry): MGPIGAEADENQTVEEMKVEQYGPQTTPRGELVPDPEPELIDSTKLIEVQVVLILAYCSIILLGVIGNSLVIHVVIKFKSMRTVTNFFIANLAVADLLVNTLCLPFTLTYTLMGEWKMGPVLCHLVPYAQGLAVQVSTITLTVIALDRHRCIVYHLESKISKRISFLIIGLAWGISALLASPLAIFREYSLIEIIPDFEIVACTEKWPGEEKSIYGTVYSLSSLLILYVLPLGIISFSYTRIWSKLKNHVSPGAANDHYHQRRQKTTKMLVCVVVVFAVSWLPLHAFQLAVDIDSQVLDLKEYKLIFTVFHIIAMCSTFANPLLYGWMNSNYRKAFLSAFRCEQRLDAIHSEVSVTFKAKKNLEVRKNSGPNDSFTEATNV

[4] = molecular target: Peroxisome proliferator-activated receptor gamma/Nuclear receptor coactivator 2 (Homo sapiens, UniProt P37231); assay type: functional;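 note: agonist potency for raising coactivator recruitment to the receptor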
[5] = molecular target: Peroxisome proliferator-activated receptor gamma/Nuclear receptor coactivator 1 (Homo sapiens, UniProt P37231); assay type: functional;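 note: agonist potency as compounds enhance coactivator SRC-1 recruitment to PPARgamma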
[6] = molecular target: Peroxisome proliferator-activated receptor gamma/Nuclear receptor coactivator 3 (Homo sapiens, UniProt P37231); assay type: functional;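 note: agonist potency for raising coactivator recruitment to the receptor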
[7] = molecular target: Sphingosine 1-phosphate receptor 2 (Homo sapiens, UniProt O95136); experiment: Dose Response Cell Based Assay for Agonists of the S1P2 Receptor of Purchased Analogues. [Related pubchem assays: 729, 843, 854, 736 ]; assay type: functional
Chain of Sphingosine 1-phosphate receptor 2 (O95136 whole entry): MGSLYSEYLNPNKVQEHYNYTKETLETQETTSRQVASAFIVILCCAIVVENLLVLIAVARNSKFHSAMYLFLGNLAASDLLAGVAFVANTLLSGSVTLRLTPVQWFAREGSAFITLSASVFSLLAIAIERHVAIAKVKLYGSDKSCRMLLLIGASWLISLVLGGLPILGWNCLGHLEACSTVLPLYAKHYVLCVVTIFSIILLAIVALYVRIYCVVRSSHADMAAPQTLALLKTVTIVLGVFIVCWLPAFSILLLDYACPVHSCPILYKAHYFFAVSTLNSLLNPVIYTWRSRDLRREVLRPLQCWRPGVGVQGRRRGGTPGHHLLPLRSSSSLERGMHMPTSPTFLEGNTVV

Chain of Aspartyl aminopeptidase (Q8I2J3 whole entry): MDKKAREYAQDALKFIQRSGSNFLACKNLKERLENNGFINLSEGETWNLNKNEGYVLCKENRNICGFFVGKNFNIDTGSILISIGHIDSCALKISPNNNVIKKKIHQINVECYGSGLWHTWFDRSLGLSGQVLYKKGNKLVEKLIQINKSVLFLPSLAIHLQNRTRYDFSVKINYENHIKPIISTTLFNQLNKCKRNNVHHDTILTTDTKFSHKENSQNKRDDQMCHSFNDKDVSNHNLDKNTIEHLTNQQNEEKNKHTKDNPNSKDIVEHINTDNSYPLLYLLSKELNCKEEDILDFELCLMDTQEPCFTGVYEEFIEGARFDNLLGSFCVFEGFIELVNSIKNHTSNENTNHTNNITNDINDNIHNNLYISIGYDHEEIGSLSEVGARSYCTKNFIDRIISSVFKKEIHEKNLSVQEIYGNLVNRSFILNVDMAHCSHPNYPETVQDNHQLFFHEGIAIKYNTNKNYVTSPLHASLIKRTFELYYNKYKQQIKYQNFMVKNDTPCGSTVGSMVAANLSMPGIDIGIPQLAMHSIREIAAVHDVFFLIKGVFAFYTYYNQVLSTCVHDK
Chain of Peroxisome proliferator-activated receptor gamma/Nuclear receptor coactivator 3 (P37231 whole entry): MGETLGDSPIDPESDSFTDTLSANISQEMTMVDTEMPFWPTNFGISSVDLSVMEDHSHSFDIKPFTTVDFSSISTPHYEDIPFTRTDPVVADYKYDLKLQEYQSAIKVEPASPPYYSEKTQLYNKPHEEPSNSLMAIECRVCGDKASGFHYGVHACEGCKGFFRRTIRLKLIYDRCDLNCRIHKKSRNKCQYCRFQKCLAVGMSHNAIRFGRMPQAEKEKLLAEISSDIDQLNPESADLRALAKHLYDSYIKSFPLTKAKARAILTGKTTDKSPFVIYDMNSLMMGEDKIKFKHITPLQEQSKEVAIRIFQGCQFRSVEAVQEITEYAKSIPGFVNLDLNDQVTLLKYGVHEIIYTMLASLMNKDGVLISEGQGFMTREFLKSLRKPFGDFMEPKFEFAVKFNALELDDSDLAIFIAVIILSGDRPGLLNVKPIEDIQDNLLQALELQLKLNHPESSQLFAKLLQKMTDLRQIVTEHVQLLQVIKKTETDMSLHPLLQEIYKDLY
Chain of Peroxisome proliferator-activated receptor gamma/Nuclear receptor coactivator 3 (Q9Y6Q9 whole entry, further chain): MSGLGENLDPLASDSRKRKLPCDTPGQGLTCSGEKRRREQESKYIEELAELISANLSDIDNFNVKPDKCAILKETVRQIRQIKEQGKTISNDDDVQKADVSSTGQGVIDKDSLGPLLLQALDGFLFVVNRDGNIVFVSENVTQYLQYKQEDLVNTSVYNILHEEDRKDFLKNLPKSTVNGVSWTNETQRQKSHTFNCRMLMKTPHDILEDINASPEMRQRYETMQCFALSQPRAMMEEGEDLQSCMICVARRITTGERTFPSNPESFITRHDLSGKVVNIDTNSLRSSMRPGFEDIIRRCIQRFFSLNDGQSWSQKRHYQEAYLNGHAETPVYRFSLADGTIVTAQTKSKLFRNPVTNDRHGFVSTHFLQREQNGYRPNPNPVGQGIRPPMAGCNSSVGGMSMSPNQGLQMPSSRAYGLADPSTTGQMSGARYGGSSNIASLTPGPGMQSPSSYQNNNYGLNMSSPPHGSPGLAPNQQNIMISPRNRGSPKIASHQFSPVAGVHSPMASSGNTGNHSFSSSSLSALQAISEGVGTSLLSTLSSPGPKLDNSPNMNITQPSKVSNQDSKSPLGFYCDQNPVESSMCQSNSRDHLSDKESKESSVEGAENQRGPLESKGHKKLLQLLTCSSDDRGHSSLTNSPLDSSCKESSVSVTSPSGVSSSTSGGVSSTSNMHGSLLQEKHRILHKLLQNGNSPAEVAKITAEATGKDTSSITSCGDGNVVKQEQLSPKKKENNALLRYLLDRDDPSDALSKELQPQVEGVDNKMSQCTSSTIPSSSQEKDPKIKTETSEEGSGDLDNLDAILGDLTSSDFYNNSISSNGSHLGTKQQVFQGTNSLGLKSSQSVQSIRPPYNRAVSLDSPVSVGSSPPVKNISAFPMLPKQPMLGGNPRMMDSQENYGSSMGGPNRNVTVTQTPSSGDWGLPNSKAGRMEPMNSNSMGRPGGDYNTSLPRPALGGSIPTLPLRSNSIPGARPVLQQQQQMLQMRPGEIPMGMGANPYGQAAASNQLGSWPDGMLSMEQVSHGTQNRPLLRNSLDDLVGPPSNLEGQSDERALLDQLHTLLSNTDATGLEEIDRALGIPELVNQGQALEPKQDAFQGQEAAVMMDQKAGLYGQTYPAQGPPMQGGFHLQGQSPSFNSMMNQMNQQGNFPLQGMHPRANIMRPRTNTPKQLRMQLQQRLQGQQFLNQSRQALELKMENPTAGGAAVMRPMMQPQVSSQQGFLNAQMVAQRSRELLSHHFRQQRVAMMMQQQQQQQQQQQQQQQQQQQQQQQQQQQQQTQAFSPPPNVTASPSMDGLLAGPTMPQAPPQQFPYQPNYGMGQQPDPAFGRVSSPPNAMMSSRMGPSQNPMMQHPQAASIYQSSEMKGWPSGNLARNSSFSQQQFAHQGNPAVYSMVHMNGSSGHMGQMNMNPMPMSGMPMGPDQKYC
Chain of Peroxisome proliferator-activated receptor gamma/Nuclear receptor coactivator 2 (P37231 whole entry): as the sequence (P37231 whole entry) above
Chain of Peroxisome proliferator-activated receptor gamma/Nuclear receptor coactivator 2 (Q15596 whole entry, further chain): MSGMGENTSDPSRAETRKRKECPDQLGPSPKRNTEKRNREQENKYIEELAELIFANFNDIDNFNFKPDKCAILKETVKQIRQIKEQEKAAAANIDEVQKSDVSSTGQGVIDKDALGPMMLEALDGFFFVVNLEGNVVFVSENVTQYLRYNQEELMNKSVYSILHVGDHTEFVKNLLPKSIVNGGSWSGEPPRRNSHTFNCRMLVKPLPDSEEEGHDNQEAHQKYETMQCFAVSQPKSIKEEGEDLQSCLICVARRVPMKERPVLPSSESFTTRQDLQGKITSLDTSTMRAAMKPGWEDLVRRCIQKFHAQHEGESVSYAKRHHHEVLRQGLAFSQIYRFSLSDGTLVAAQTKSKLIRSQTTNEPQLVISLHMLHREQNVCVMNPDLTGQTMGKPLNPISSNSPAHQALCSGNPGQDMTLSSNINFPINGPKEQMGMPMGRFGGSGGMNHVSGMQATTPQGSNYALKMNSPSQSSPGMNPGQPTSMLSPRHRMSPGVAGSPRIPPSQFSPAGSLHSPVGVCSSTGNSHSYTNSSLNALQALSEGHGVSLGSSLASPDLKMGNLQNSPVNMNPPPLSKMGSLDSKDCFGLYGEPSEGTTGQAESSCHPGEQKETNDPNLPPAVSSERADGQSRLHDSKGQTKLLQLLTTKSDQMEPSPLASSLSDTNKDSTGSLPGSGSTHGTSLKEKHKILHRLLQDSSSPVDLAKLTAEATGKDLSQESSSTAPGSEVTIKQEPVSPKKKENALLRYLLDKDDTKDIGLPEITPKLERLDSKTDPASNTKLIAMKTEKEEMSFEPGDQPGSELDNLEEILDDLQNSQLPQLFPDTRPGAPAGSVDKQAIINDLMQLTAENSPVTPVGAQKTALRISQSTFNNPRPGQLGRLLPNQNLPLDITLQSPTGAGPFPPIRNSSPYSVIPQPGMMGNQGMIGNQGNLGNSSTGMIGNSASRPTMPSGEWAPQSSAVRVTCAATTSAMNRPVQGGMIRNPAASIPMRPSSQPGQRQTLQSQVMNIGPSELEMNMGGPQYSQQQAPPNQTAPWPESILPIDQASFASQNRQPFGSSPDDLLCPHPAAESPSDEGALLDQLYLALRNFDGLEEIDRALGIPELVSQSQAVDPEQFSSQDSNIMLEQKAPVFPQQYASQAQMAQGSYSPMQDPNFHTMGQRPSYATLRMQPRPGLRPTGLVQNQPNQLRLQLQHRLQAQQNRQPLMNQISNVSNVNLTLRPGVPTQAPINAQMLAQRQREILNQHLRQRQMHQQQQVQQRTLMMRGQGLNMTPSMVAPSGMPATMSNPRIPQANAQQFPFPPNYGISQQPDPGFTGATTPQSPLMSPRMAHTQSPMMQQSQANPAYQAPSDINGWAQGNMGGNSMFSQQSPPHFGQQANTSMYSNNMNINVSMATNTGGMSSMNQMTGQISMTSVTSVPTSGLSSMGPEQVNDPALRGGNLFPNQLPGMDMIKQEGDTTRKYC

In the case of `CS(=O)(=O)N1CCN(CC2CC3C=CC2C3)CC1` (stereo not given), the EC50 [1] is reported as > 120 µM (not active).
For `O=C(O)Cc1ccc(NC(=O)Nc2ccc(Br)cc2)cc1`, the IC50 (Leucine aminopeptidase) was < 1 µM (active), the IC50 (Aspartyl aminopeptidase) was > 73.5 µM (not active) and the IC50 (Procathepsin L) was > 59.6 µM (not active).
In the case of `Clc1ccc(CSc2cc3c(nn2)-c2ccccc2CC3)cc1Cl`, the IC50 [2] is reported as 5.27 µM (active) and the IC50 [3] is reported as 6.88 µM (active).
For `Brc1ccc(-c2csc(N/N=C/c3ccco3)n2)cc1`, the EC50 [4] was > 79.4 µM (not active), the EC50 [5] was > 79.4 µM (not active) and the EC50 [6] was > 79.4 µM (not active).
With `Cc1cc(C(=O)CN2C(=O)CCC2=O)c(C)n1Cc1ccc2c(c1)OCO2` the EC50 [7] was > 30 µM (not active).
